Data set [1] deals with T1, SARS-CoV-2 PLpro (Severe acute respiratory syndrome coronavirus 2, UniProt P0DTD1).
T1 construct: containing 60 nM papain-like protease
Description: biochemical. As to conditions: 60 nM papain-like protease, 50 μM Z-RLRGG-AMC, pH 7.5, 37° C.; read-out: SARS-CoV-2 PLpro IC50.

Data set [2] has as its system human Hep G2 cells (ATCC HB-8065). Description: Cytotoxicity in Hep G2 cells (CellTiter-Glo). It is filed as cell-based. As to conditions: Hep G2 cells, 100 μM test article, 24-hour exposure. A general note: In ATP-based viability assays light output follows the ATP content of the culture.

Structures can show the parent of a compound that is named as a salt. Some results are limits rather than exact numbers.

Broadly, the IC50 is the concentration that inhibits the measured activity by half. `Cc1ccc(N2CCN(C)CC2)cc1C(=O)N[C@H](C)c1cccc(-c2cccc(CCO)c2)c1` [Example 44, N-[(1R)-1-[3-[3-(2-Hydroxyethyl)phenyl]phenyl]ethyl]-2-methyl-5-(4-methylpiperazin-1-yl)benzamide]: the IC50 in data set [1] is under 2 µM. Further, in data set [2], the “% Cell Viability” value is 61.0%.

Take `COc1cc(-c2cnn(C)c2)cc([C@@H](C)NC(=O)c2cc(N3CCCNCC3)ccc2C)c1` [Example 263, 5-(1,4-Diazepan-1-yl)-N-[(1R)-1-[3-methoxy-5-(1-methylpyrazol-4-yl)phenyl]ethyl]-2-methyl-benzamide]: in data set [1], the IC50 was under 2 µM. In data set [2], the “% Cell Viability” value came to 56.4%.

In the case of `Cc1ccc(N2CCN(CCC(=O)O)CC2)cc1C(=O)N[C@H](C)c1cccc(-c2cccc(CO)c2)c1` [Example 170, 3-[4-[3-[[(1R)-1-[3-[3-(Hydroxymethyl)phenyl]phenyl]ethyl]carbamoyl]-4-methyl-phenyl]piperazin-1-yl]propanoic Acid], in data set [1], the concentration for half-maximal inhibition (IC50) was under 5 µM. Further, in data set [2], the “% Cell Viability” value is 107.9%.

Consider `COc1ccc([C@@H](C)NC(=O)c2cc(N3CCN(C)CC3)ccc2C)cc1OCCO` [Example 294, N-[(1R)-1-[3-(2-Hydroxyethoxy)-4-methoxy-phenyl]ethyl]-2-methyl-5-(4-methylpiperazin-1-yl)benzamide], for which the 50% inhibitory concentration (IC50) in data set [1] is under 5 µM. In data set [2], the “% Cell Viability” value is given as 120.9%.

For `COc1cc(Br)cc([C@@H](C)NC(=O)c2cc(N3CCN4CCCC4C3)ccc2C)c1` (stereo partly drawn) [Example 200, 5-(3,4,6,7,8,8a-Hexahydro-1H-pyrrolo[1,2a]pyrazin-2-yl)-N-[(1R)-1-(3-bromo-5-methoxy-phenyl)ethyl]-2-methyl-benzamide], the half-maximal inhibitory concentration (IC50) in data set [1] is under 2 µM. Also, the “% Cell Viability” value in data set [2] is given as 24.3%.

`Cc1ccc(N2CCN(C)CC2)cc1C(=O)N[C@H](C)c1cccc(-c2ccc(CNC3CCCC3)s2)c1` [Example 78, N-[(1R)-1-[3-[5-[(Cyclopentylamino)methyl]-2-thienyl]phenyl]ethyl]-2-methyl-5-(4-methylpiperazin-1-yl)benzamide Dihydrochloride Salt]: the IC50 in data set [1] is under 2 µM. In data set [2], the “% Cell Viability” value is 1.3%.

For `Cc1ccc(N2CCN(C)CC2)cc1C(=O)N[C@H](C)c1cccc(-c2cnc(N)nc2)c1` [Example 63, N-[(1R)-1-[3-(2-Aminopyrimidin-5-yl)phenyl]ethyl]-2-methyl-5-(4-methylpiperazin-1-yl)benzamide], the IC50 in data set [1] is under 2 µM. Further, in data set [2], the “% Cell Viability” value is given as 75.6%.

As for `COc1cc(Br)cc([C@@H](C)NC(=O)c2cc(N3C[C@H]4C[C@@H]3CN4C)ccc2C)c1` [Example 198, N-[(1R)-1-(3-Bromo-5-methoxy-phenyl)ethyl]-2-methyl-5-[(1R,4R)-5-methyl-2,5-diazabicyclo[2.2.1]heptan-2-yl]benzamide], the 50% inhibitory concentration (IC50) in data set [1] was under 2 µM. The “% Cell Viability” value in data set [2] is on record as 1.6%.

`COc1ccc([C@@H](C)NC(=O)c2cc(N3CC4CNCC4C3)ccc2C)cc1OC` (stereo partly drawn) [Example 36, 5-(2,3,3a,4,6,6a-Hexahydro-1H-pyrrolo[3,4-c]pyrrol-5-yl)-N-[(1R)-1-(3,4-dimethoxyphenyl)ethyl]-2-methyl-benzamide]: the concentration for half-maximal inhibition (IC50) in data set [1] is under 2 µM. Further, in data set [2], the “% Cell Viability” value worked out at 98.0%.

As to `COc1ccc([C@@H](C)NC(=O)c2cc(N3CCN(C)CC3)ccc2C)cc1-c1ccn(C)n1` [Example 207, N-[(1R)-1-[4-Methoxy-3-(1-methylpyrazol-3-yl)phenyl]ethyl]-2-methyl-5-(4-methylpiperazin-1-yl)benzamide], the concentration for half-maximal inhibition (IC50) in data set [1] is under 2 µM. The “% Cell Viability” value in data set [2] is 103.7%.

With `Cc1ccc(N2CCN(C)CC2)cc1C(=O)N[C@H](C)c1cccc(-c2c(C)n[nH]c2C)c1` [Example 58, N-[(1R)-1-[3-(3,5-Dimethyl-1H-pyrazol-4-yl)phenyl]ethyl]-2-methyl-5-(4-methylpiperazin-1-yl)benzamide], in data set [1], the IC50 was under 2 µM. For the same molecule, the “% Cell Viability” value in data set [2] was 86.7%.

With `Cc1ccc(N2CCN(C)CC2)cc1C(=O)N[C@H](C)c1ccc2c(c1)OCCO2` [Example 182, N-[(1R)-1-(2,3-Dihydro-1,4-benzodioxin-6-yl)ethyl]-2-methyl-5-(4-methylpiperazin-1-yl)benzamide], the half-inhibitory concentration (IC50) in data set [1] was under 5 µM. In addition, the “% Cell Viability” value in data set [2] came out at 104.8%.

Consider `Cc1ccc(N2CCN(CCCC(=O)O)CC2)cc1C(=O)N[C@H](C)c1cccc2ccccc12` [Example 172, 4-[4-[4-Methyl-3-[[(1R)-1-(1-naphthyl)ethyl]carbamoyl]phenyl]piperazin-1-yl]butanoic Acid], for which the IC50 in data set [1] is under 2 µM. Further, the “% Cell Viability” value in data set [2] is 104.6%.

As for `Cc1ccc(N2CCN(C)CC2)cc1C(=O)N[C@H](C)c1cccc(C#N)c1` [Example 34, N-[(1R)-1-(3-Cyanophenyl)ethyl]-2-methyl-5-(4-methylpiperazin-1-yl)benzamide], the IC50 in data set [1] is under 10 µM. Moreover, the “% Cell Viability” value in data set [2] was 97.8%.

`Cc1ccc(N2CCN(C)CC2)cc1C(=O)N[C@H](C)c1cccc(-c2cccc(C(=O)N3CCN(C)CC3)c2)c1` [Example 88, 2-Methyl-N-[(1R)-1-[3-[3-(4-methylpiperazine-1-carbonyl)phenyl]phenyl]ethyl]-5-(4-methylpiperazin-1-yl)benzamide]: the concentration for half-maximal inhibition (IC50) in data set [1] is under 2 µM. Also, the “% Cell Viability” value in data set [2] came out at 78.8%.

Regarding `Cc1ccc(N2CCN(C)CC2)cc1C(=O)N[C@H](C)c1cccc(-c2cc(CO)cc(CO)c2)c1` [Example 81, N-[(1R)-1-[3-[3,5-Bis(hydroxymethyl)phenyl]phenyl]ethyl]-2-methyl-5-(4-methylpiperazin-1-yl)benzamide], in data set [1], the IC50 is under 2 µM. In addition, the “% Cell Viability” value in data set [2] turned out to be 94.4%.

`Cc1ccc(N2CCN(C)CC2)cc1C(=O)N[C@H](C)c1cccc(-c2cccc(N3CCN(CCC(=O)O)CC3)c2)c1` [Example 167, 3-[4-[3-[3-[(1R)-1-[[2-Methyl-5-(4-methylpiperazin-1-yl)benzoyl]amino]ethyl]phenyl]phe-nyl]piperazin-1-yl]propanoic acid]: the half-maximal inhibitory concentration (IC50) in data set [1] is under 2 µM. In addition, the “% Cell Viability” value in data set [2] stood at 110.4%.

With `Cc1ccc(N2CCN(C)CC2)cc1C(=O)N[C@H](C)c1cncc(-c2cn(C)nc2C)c1` [Example 225, N-[(1R)-1-[5-(1,3-Dimethylpyrazol-4-yl)-3-pyridyl]ethyl]-2-methyl-5-(4-methylpiperazin-1-yl)benzamide], in data set [1], the IC50 was under 10 µM. In data set [2], the “% Cell Viability” value was found to be 95.8%.

Take `Cc1ccc(N2CCN(C)CC2)cc1C(=O)N[C@H](C)c1cc(F)cc(-c2cnn(C)c2)c1` [Example 229, N-[(1R)-1-[3-Fluoro-5-(1-methylpyrazol-4-yl)phenyl]ethyl]-2-methyl-5-(4-methylpiperazin-1-yl)benzamide]: the IC50 in data set [1] is under 2 µM. For the same molecule, the “% Cell Viability” value in data set [2] is 66.7%.

Turning to `Cc1ccc(N2CCN(C)CC2)cc1C(=O)N[C@H](C)c1cccc(-c2cccc(=O)[nH]2)c1` [Example 76, 2-Methyl-5-(4-methylpiperazin-1-yl)-N-[(1R)-1-[3-(6-oxo-1H-pyridin-2-yl)phenyl]ethyl]benzamide], in data set [1], the IC50 was under 2 µM. Further, in data set [2], the “% Cell Viability” value is 81.2%.

As to `COc1cc(-c2cn(C)nc2C)cc([C@@H](C)NC(=O)c2cc(N3CC4CN(C)CC4C3)ccc2C)c1` (stereo partly drawn) [Example 254, N-[(1R)-1-[3-(1,3-Dimethylpyrazol-4-yl)-5-methoxy-phenyl]ethyl]-2-methyl-5-(2-methyl-1,3,3a,4,6,6a-hexahydropyrrolo[3,4-c]pyrrol-5-yl)benzamide], in data set [1], the IC50 was under 2 µM. Also, in data set [2], the “% Cell Viability” value came out at 57.0%.

On to `Cc1ccc(N2CCN(C)CC2)cc1C(=O)N[C@H](C)c1cccc(-c2cc[nH]n2)c1` [Example 49, 2-Methyl-5-(4-methylpiperazin-1-yl)-N-[(1R)-1-[3-(1H-pyrazol-3-yl)phenyl]ethyl]benzamide], for which, in data set [1], the IC50 is under 2 µM. Besides, the “% Cell Viability” value in data set [2] stood at 82.7%.

Consider `Cc1ccc(N2CCN(C)CC2)cc1C(=O)N[C@H](C)c1cccc(-c2cccc(C(N)=O)c2)c1` [Example 43, N-[(1R)-1-[3-(3-Carbamoylphenyl)phenyl]ethyl]-2-methyl-5-(4-methylpiperazin-1-yl)benzamide], for which the half-inhibitory concentration (IC50) in data set [1] was under 2 µM. Further, the “% Cell Viability” value in data set [2] stood at 71.3%.

With `COCCNC(=O)c1cccc(-c2cccc([C@@H](C)NC(=O)c3cc(N4CCN(C)CC4)ccc3C)c2)c1` [Example 87, N-[(1R)-1-[3-[3-(2-Methoxyethylcarbamoyl)phenyl]phenyl]ethyl]-2-methyl-5-(4-methylpiperazin-1-yl)benzamide], the IC50 in data set [1] is under 2 µM. In addition, the “% Cell Viability” value in data set [2] was found to be 74.6%.

`Cc1ccc(N2CCN(C)CC2)cc1C(=O)N[C@H](C)c1cccc(-c2cccc(C(=O)NCCN)c2)c1` [Example 98, N-[(1R)-1-[3-[3-(2-Aminoethylcarbamoyl)phenyl]phenyl]eth-yl]-2-methyl-5-(4-methylpiperazin-1-yl)benzamide]: in data set [1], the concentration for half-maximal inhibition (IC50) was under 2 µM. The “% Cell Viability” value in data set [2] turned out to be 98.5%.

In the case of `C[C@@H](NC(=O)c1cc(N2CCN(C)CC2)ccc1Cl)c1cccc2ccccc12` [Example 130, 2-Chloro-5-(4-methylpiperazin-1-yl)-N-[(1R)-1-(1-naphthyl)ethyl]benzamide], the half-maximal inhibitory concentration (IC50) in data set [1] was under 10 µM. The “% Cell Viability” value in data set [2] was determined as 1.0%.

For the molecule `CNCCN(C)C(=O)c1cccc(-c2cccc([C@@H](C)NC(=O)c3cc(N4CCN(C)CC4)ccc3C)c2)c1` [Example 99, 2-Methyl-N-[(1R)-1-[3-[3-[methyl-[2-(methylamino)ethyl]carbamoyl]phenyl]phenyl]ethyl]-5-(4-methylpiperazin-1-yl)benzamide Hydrochloride Salt], the 50% inhibitory concentration (IC50) in data set [1] is under 2 µM. Further, in data set [2], the “% Cell Viability” value was found to be 104.6%.

For the origin of these results see patent US20240383852A1, “ANTI-VIRAL COMPOUNDS” (INFEX Therapeutics Limited, priority 2021, published 2024).
